In article PMC7011998 (Journal of Enzyme Inhibition and Medicinal Chemistry, 2017):

Columns and labels:
Trypanosoma cruzi = tested on: Trypanosoma cruzi; parameters: method as in PMID 23815159; conditions: unformulated sulfonamides; cited from earlier work
[1] = Dissolution of sulfonamides in clove oil; conditions: concentration 5 mg/ml in clove oil
Description: Oil phase was prepared by sulfonamides dissolution in the clove oil. A 5 mg of drug was weighted in an eppendorf and 1 ml of clove oil was added. The tube was agitated for 1 min for obtaining of the drug solution (5 mg/ml). Aqueous phase were prepared by adding 1 g of Pluronic F127® in 8 mg of water. Then 1 ml of oil phase (drug dissolved in clove oil) was added to 9 ml of aqueous phase (Pluronic F127 in water) under constant ultrasound homogenization (amplitude 80%, continuous cycle n. 1) during 5 min in an ice bath at 5 °C to prevent heating of the dispersion.
The NEs were produced with 10% of oil phase.

[2] = tested on: T. cruzi clone Dm28c epimastigotes; assay: Growth inhibition of T. cruzi epimastigotes, resazurin microdilution, Dm28c; format: cell-based, Trypanosoma cruzi
Description: (§1) Epimastigote forms of the T. cruzi clone Dm28c ([…])[31] and Y([…])[32]^,[33] strains obtained from the Laboratory of Cellular Ultrastructure (both laboratories of the Oswaldo Cruz Foundation, Rio de Janeiro, Brazil) were used. The parasites were maintained in PBHIL medium supplemented with 10% bovine serum (FBS) at 28 °C[34].
(§2) The Minimum inhibitory concentration (MIC) for epimastigotes was performed with resazurin as an indicator of cellular metabolic function and it was determined as the lowest concentration capable of inhibiting in vitro growth of the parasites.

[3] = tested on: T. cruzi Y strain epimastigotes; assay: Growth inhibition of T. cruzi epimastigotes, resazurin microdilution, Y strain; format: cell-based; conditions: Trypanosoma cruzi; TcY epimastigotes, drug nanoemulsions; read-out: IC90 (concentration which reduced the proliferation of epimastigotes by 90%)
Description: as §1, §2

[4] = tested on: T. cruzi Dm28c strain epimastigotes; assay: Flow cytometry annexin V-FITC / propidium iodide, Dm28c; format: cell-based, Trypanosoma cruzi; conditions: 32 μM
Description: The analysis of the externalization of phosphatidylserine was performed using annexin V fluoresceine isothiocyanate (AV FITC) and propidium iodide, PI (Santa Cruz Biotechonology, Santa Cruz, CA). The cells were analysed by flow cytometry (FACS Calibur-Beckton-Dickinson), 50,000 events were analysed by the Paint-a-gate program and values were expressed as percentage of cells positive for a given marker relative to the total number of cells: FITC-labelled cells […], PI-labelled cells […], and cells with ruptured cell membrane (necrotic cells will be double-labelled).

Row | dissolution in clove oil [1] | Compound | in vivo anti-trypanosomal effects (Trypanosoma cruzi) | also measured
1 | dissolved efficiently | NS(=O)(=O)c1nnc(NC(=O)Cc2ccccc2Br)s1 [5C] | did not show in vivo anti-trypanosomal effects | 
2 | dissolved efficiently | NS(=O)(=O)c1ccc(NC(=O)Cc2ccccc2Br)c(F)c1 [3G] | did not show in vivo anti-trypanosomal effects | 
3 | dissolved efficiently | NS(=O)(=O)c1ccc(CCNC(=O)Cc2ccccc2Br)cc1 [3W] | did not show in vivo anti-trypanosomal effects | 

Continued, compound first:

Row | Compound | dissolution in clove oil [1] | in vivo anti-trypanosomal effects (Trypanosoma cruzi) | also measured
4 | NS(=O)(=O)c1ccc(NC(=O)Cc2ccc(Cl)cc2)c(F)c1 [3F] | dissolved efficiently | did not show in vivo anti-trypanosomal effects | 
5 | O=C(Cn1ccnc1[N+](=O)[O-])NCc1ccccc1 [BZN, 2-nitro-imidazole-(N-benzil-2-nitro-1imidazoleacetamide)] |  |  | IC50 ([2]; Trypanosoma cruzi, read-out: IC50 (concentration which reduced the proliferation of epimastigotes by 50%), Tc DM28c epimastigotes, drug nanoemulsions): 20.6 µM; IC90 ([2]; Trypanosoma cruzi, Tc DM28c epimastigotes, drug nanoemulsions, read-out: IC90 (concentration which reduced the proliferation of epimastigotes by 90%)): > 128 µM; SI (selectivity index) ([2]; both strains (DM28c and Y), CC50 RAW / IC50): 5–5.8; IC90 [3]: > 128 µM; cell death by necrosis (propidium iodide) [4]: 51.16%
6 | NS(=O)(=O)c1nnc(NC(=O)Cc2ccc(Cl)cc2)s1 [5B] | dissolved efficiently | did not show in vivo anti-trypanosomal effects | 
7 | COc1ccc(CC(=O)Nc2nnc(S(N)(=O)=O)s2)cc1 [5D] | dissolved efficiently | did not show in vivo anti-trypanosomal effects | 
